Where two headings read alike, the source gives them in different places.
Key:
[1] = format: physicochemical
Description: (§1) The coloration of cephradine hydrate was determined by the absorbance at 450 nm. The absorbance and stress stability of the cephradine hydrate prepared as described above were determined. • 1. Absorbance
(§2) 1 g of cephradine hydrate was dissolved in 10 ml 10% aqueous sodium carbonate solution. The absorbance was determined at 450 nm (=A450) on a Perkin Elmer 550 S spectrophotometer, with 10% aqueous sodium carbonate solution as a reference solution at room temperature. • 2. Stress Stability Test 1.
Cephradine hydrate prepared enzymatically according to Example III and chemically according to Reference Experiment B) was kept at 40° C. at a relative humidity of 75%. After 0, 2, 4, 6 8, 10 and 12 weeks the absorbance at 450 nm was determined as described above.

[2] = Coloration of cephradine hydrate: absorbance at 450 nm; format: physicochemical; conditions: before stress stability test, crystallisation pH 4.80
Description: as §2, with “The coloration of cephradine hydrate was determined by the absorbance at 450 nm. The absorbance and stress stability of the cephradine hydrate prepared as described above were determined. • 1. Absorbance 1 g” for “1 g”

[3] = Stress stability test 2 (3 hrs at 100° C., A450); format: physicochemical; conditions: for A450 after stress stability test (3 h, 100° C.): crystallisation pH 4.80, hydrate
Description: as §1, §2
Cephradine hydrate prepared enzymatically according to Example III and crystallised at different temperatures as indicated in Table 3 was maintained during 3 hrs at 100° C. The A450 of the cephradine crystals thus treated was determined as described above.

Row | SMILES | A450 at t = 0 [2] | A450 after stress stability test (3 h, 100° C.) [3] | also measured
1 | CC1=C(C(=O)O)N2C(=O)[C@@H](NC(=O)[C@H](N)C3=CCC=CC3)[C@H]2SC1 [Cephradine prepared chemically, cephradine hydrate] | – | – | A450 (color stability) ([1]; 0 weeks): 0.028; A450 (color stability) ([1]; 2 weeks): 0.065; A450 (color stability) ([1]; 4 weeks): 0.077; A450 (color stability) ([1]; 6 weeks): 0.161; A450 (color stability) ([1]; 8 weeks): 0.142; A450 (color stability) ([1]; 10 weeks): 0.211
2 | CC1=C(C(=O)O)N2C(=O)[C@@H](NC(=O)[C@H](N)C3=CCC=CC3)[C@H]2SC1 [IV, cephradine hydrate] | 0.051 | 0.301 | –
3 | CC1=C(C(=O)O)N2C(=O)[C@@H](NC(=O)[C@H](N)C3=CCC=CC3)[C@H]2SC1 [V, cephradine hydrate] | 0.018 | 0.056 | Color stability of cephradine crystals versus crystallization temperature [3]: superior values
4 | CC1=C(C(=O)O)N2C(=O)[C@@H](NC(=O)[C@H](N)C3=CCC=CC3)[C@H]2SC1 [VI, cephradine hydrate] | 0.021 | 0.291 | –
5 | CC1=C(C(=O)O)N2C(=O)[C@@H](NC(=O)[C@H](N)C3=CCC=CC3)[C@H]2SC1 [VII, cephradine hydrate] | 0.017 | 0.330 | –

Reference: patent publication US7588913B2, “Process for the preparation of cephradine” (DSM IP Assets B.V., priority 2003, dated 2009)
